One may read the IC50 as the midpoint of a concentration-inhibition curve. By EC50 is commonly meant the concentration needed to bring the measured effect to its halfway point. The term IC90 denotes the point of the concentration-response curve where the effect stands at 90%. One may read the EC90 as the point of the concentration-response curve where the effect stands at 90%. Low readings indicate greater potency, high ones weaker potency.

Molecules are shown by their SMILES. “And” between values parts separate entries of the source, which are not always exact repeats. Identical values can stand only once. Like-named read-outs stand apart in the source and are kept apart here. A value given as a limit tells only on which side of the number the result lay.

The subject of series [1] is Dengue Virus 2. Description: DENV2 antiviral activity (Tables 11-15). It is filed as cell-based. The following applies: for IC50: DENV2.
In the next series the test system is Dengue Virus 4. Description: DENV4 antiviral activity (Tables 11-15). It is filed as cell-based.
A further series has as its system Huh7 cells. Conditions: human.
Series [2] can be described thus: in vitro. The following applies: human.
The test system of series [3] is Ebola Virus. The experiment in a line: microbe, parasite or virus in culture. It counts as cell-based, strain Zaire.
The subject of another series is Rubella Virus. The experiment in a line: Rubella Virus antiviral screening, A549. It is filed as cell-based.
Series [4] in a line: Cell viability in A549 (parallel to Rubella screening). It is filed as cell-based. Conditions: human, A549 cells, RA-0001522.
For another series, the system named is Rift Valley Fever Virus. The experiment in a line: microbe, parasite or virus in culture. It counts as cell-based.
Series [5] is described as follows: in vitro.
The subject of a further series is SARS-CoV-2 (WA-1). Description: SARS-CoV-2 (WA)(A549) #1 antiviral activity. It is filed as cell-based. Conditions: Severe acute respiratory syndrome coronavirus 2; WA-1 strain in A549 cells; lab #1.
Another series concerns SARS-CoV-2 (WA). Description: SARS-CoV-2 (WA)(Calu3) antiviral activity. The following applies: Severe acute respiratory syndrome coronavirus 2, Calu-3. It is filed as cell-based, WA strain.
The nature of series [6]: Cytotoxicity, Calu3 (WA test). It counts as cell-based. Conditions: human, Calu3 cells; Calu3 (WA lines).
Series [7] is described as follows: Cytotoxicity, A549 cells, lab #1. Conditions: human.
The next series relates to SARS-CoV-2 (Omicron). The experiment in a line: SARS-CoV-2 (Omicron) (Calu3) #1 antiviral activity. It is filed as cell-based. Conditions: Severe acute respiratory syndrome coronavirus 2; Omicron strain in Calu-3 cells; lab #1.
A further series deals with SARS-CoV-2. The experiment in a line: SARS-CoV-2 (A549) #2 antiviral activity. It counts as cell-based. The following applies: Severe acute respiratory syndrome coronavirus 2, lab #2.
The subject of series [8] is Ebola Virus. The experiment in a line: microbe, parasite or virus in culture. It counts as cell-based. Conditions: Zaire ebolavirus, Huh-7.
Another series relates to Chikungunya Virus. Description: CHIKV antiviral activity (Tables 11-15). It counts as cell-based.
In series [9] the test system is Venezuelan Equine Encephalitis Virus. The experiment in a line: microbe, parasite or virus in culture. It is filed as cell-based.
Series [10] is described as follows: in vitro. Conditions: human. This is another data set of the same source.
Series [11] in a line: in vitro. The source holds these as a separate data set.
Series [12] is described as follows: Cytotoxicity, A549, lab #2. Conditions: human, A549 cells.
A short description of series [13]: Cytotoxicity printed in the CHIKV line (Table 11).
Another series concerns Epstein-Barr virus. Description: microbe, parasite or virus in culture. It counts as cell-based, strain Akata. Conditions: human gammaherpesvirus 4, Akata.
Series [14] can be described thus: in vitro. Conditions: human. This is another data set of the same source.
In series [15] the test system is Dengue Virus 2. The experiment in a line: microbe, parasite or virus in culture. The following applies: Huh-7. It counts as cell-based, strain New Guinea C.
The test system of a further series is Enterovirus-71. Description: organism not typed. It counts as cell-based.
A further series deals with MERS Coronavirus. It is filed as cell-based, strain EMC.
Series [16] can be described thus: Cytotoxicity printed in the DENV4 lines (Tables 11-15). It counts as cell-based. The following applies: cells not given.

As to `COc1ncc(-c2cn([C@@H]3O[C@H](CO[P@@](=O)(N[C@@H](C)C(=O)OC(C)C)Oc4ccccc4)[C@H](O)C3(C)F)cn2)c(OC)n1` (stereo partly shown) [CDW3-007], the IC50 in the series with Dengue Virus 2 [1] is 45 µM; with Dengue Virus 4 (DENV4), greater than 50 µM. Besides, the CC50 was greater than 200 µM in the series on Huh7 cells and 274 µM in “in vitro [2]”.

For the molecule `CNc1nc(N)ncc1-c1cn([C@@H]2O[C@H](COP(=O)(NC(C)C(=O)OC(C)C)Oc3ccccc3)C(O)C2(C)F)cn1` (stereo in doubt) [CDW3-002, propan-2-yl-(2S)-2-(((((2R,3R,4R,5R)-5-(4-(2-amino-4-(methylamino)pyrimidin-5-yl)-1H-imidazol-1-yl)-4-fluoro-3-hydroxy-4-methyloxolan-2-yl)methyl)(phenyl)phosphono)amino) propanoate], the EC50 with Ebola Virus [3] (Zaire ebolavirus, Vero, read-out: EC50) was found to be 30 µM. Further, the results for the IC50 in the series on Rubella Virus and with Rift Valley Fever Virus were 69.9 µM and 74.9 µM, respectively. Further, the IC90 in the series with Rubella Virus and in the series with Rift Valley Fever Virus was greater than 100 µM throughout. Moreover, the values for the CC50 (in series [4]; in “in vitro [5]”) were 97.2 µM and greater than 100 µM, respectively.

Turning to `CCC(CC)COC(=O)[C@H](C)N[P@](=O)(OCCOCn1cncc1-c1cnc(OC)nc1OC)Oc1ccccc1` [JT-092], the IC50 with SARS-CoV-2 (WA-1) came to 29.7 µM; with SARS-CoV-2 (WA), 82.8 µM. Moreover, the IC90 in the series on SARS-CoV-2 (WA-1) worked out at 273 µM; with SARS-CoV-2 (WA), 172 µM. Besides, the CC50 in [6] and in series [7] was greater than 100 µM throughout.

For `NC(=O)c1nc(F)c[nH]c1=O` [Favipiravir, reference compound], the EC50 in the series on Ebola Virus [3] (Zaire ebolavirus, Vero) is 12 µM.

For `CNc1cc(-c2cncn2[C@@H]2O[C@H](CO[P@@](=O)(N[C@@H](C)C(=O)OC(C)C)Oc3ccccc3)[C@H](O[P@@](=O)(N[C@@H](C)C(=O)OC(C)C)Oc3ccccc3)C2(C)F)nc(N)n1` (stereo partly shown) [CEM-034], the concentration for half-maximal inhibition (IC50) was 14 µM with Dengue Virus 2 [1]; 18 µM with Dengue Virus 4 (DENV4); 22.6 µM in the series with SARS-CoV-2 (Omicron); 13.6 µM in the series with SARS-CoV-2 (WA-1); 6.47 µM with SARS-CoV-2; 13.5 µM in the series with Ebola Virus [8]. For the same molecule, the EC50 in the series on Chikungunya Virus was 19.9 µM; in [9] it was 19.7 µM. Further, the CC50 in the series “in vitro [10]” is 35.4 µM; in the series “in vitro [2]”, 85 µM; in the series “in vitro [11]”, greater than 100 µM; in [12], 15.4 µM; in [7], 4.05 µM; in series [13], greater than 100 µM.

In the series on Epstein-Barr virus, `Nc1ccn(C[C@@H](CO)OCP(=O)(O)O)c(=O)n1` [Cidofovir, reference compound] came in with an EC50 of 3.92 µM and an EC90 of 71.4 µM. The CC50 in the series “in vitro [14]” was greater than 100 µM.

Turning to `COc1ncc(-c2cn(COCCO)cn2)c(OC)n1` [JT-004], in the series on Epstein-Barr virus, the EC90 was greater than 100 µM. For the same molecule, the EC50 in the series on Epstein-Barr virus (read-out: EC50) was determined as 86.8 µM. This molecule also registered a CC50 in the series “in vitro [14]” greater than 100 µM.

Turning to `Nc1nc(=O)n([C@@H]2C[C@@H](O)[C@H](CO)O2)cc1-c1ccco1` [CHK-05, 4-amino-5-(furan-2-yl)-1-((2S,4R,5S)-4-hydroxy-5-(hydroxymethyl)tetrahydrofuran-2-yl)pyrimidin-2(1H)-one], the EC50 in the series on Epstein-Barr virus (read-out: EC50) stood at 69.9 µM; in the series with Dengue Virus 2 [15] it was 79 µM; in the series on Enterovirus-71, 24 µM.

`CCC(CC)COC(=O)[C@H](C)NP(=O)(OCCOCn1cnc(-c2cnc(OC)nc2OC)c1)Oc1ccccc1` (stereo partly shown) [JT-005]: in the series on Ebola Virus [3] (read-out: EC50), the EC50 is 12 µM. Moreover, the CC50 with Vero is greater than 100 µM.

`COc1ncc(-c2cn(COCCOC(C)=O)cn2)c(OC)n1` [JT-006]: the EC90 with Epstein-Barr virus is greater than 100 µM. Moreover, in the series with Epstein-Barr virus (read-out: EC50), the EC50 turned out to be 79.9 µM. This molecule had a CC50 in “in vitro [14]” greater than 100 µM.

`Cc1ccc(-c2cn([C@@H]3C[C@@H](O)[C@H](CO)O3)c(=O)[nH]c2=O)s1` [CHK-03, 1-((2S,4R,5S)-4-hydroxy-5-(hydroxymethyl)tetrahydrofuran-2-yl)-5-(5-methylthiophen-2-yl)pyrimidine-2,4(1H,3H)-dione] returned an EC90 in the series with Epstein-Barr virus of 18.7 µM. Also, the EC50 in the series on Epstein-Barr virus (read-out: EC50) came to 2.97 µM. Also, the CC50 in the series “in vitro [14]” is greater than 100 µM.

`CCC(=O)OCCOCn1cnc(-c2cnc(OC)nc2)c1` [JT-093]: the IC50 with Dengue Virus 2 [1] was 21 µM; in the series on Dengue Virus 4 (DENV4), greater than 50 µM.

Take `COc1nc(N)ncc1-c1cn(COCCO)cn1` [JT-001]: the EC90 with Epstein-Barr virus is greater than 100 µM. Moreover, in the series on Epstein-Barr virus (read-out: EC50), the EC50 stood at 59.9 µM. The molecule also gave a CC50 in the series “in vitro [14]” greater than 100 µM.

Regarding `O=c1nc(NO)ccn1[C@@H]1O[C@H](CO)[C@@H](O)[C@H]1O` [EIDD-1931], the EC50 in the series with MERS Coronavirus was 0.036 µg/mL and 0.034 µg/mL.

As for `COc1ncc(-c2cn([C@@H]3O[C@H](CO[P@@](=O)(N[C@@H](C)C(=O)OC(C)C)Oc4ccccc4)[C@H](O[P@@](=O)(N[C@@H](C)C(=O)OC(C)C)Oc4ccccc4)C3(C)F)cn2)c(OC)n1` (stereo partly shown) [CDW3-015], the IC50 with Dengue Virus 4 (DENV4) stood at 16 µM; in the series on SARS-CoV-2 (Omicron), 19.7 µM; with SARS-CoV-2 (WA-1), 12.4 µM; in the series on SARS-CoV-2 it was 2.95 µM; in the series on Ebola Virus [8] it was 47 µM. Further, the IC90 with Dengue Virus 4 (DENV4) was 26 µM. Besides, the CC50 is greater than 100 µM in series [16], 1.74 µM in the series “in vitro [10]”, greater than 200 µM in the series “in vitro [2]” and greater than 100 µM in series [7].

As for `CC(C)OC(=O)[C@H](C)N[P@](=O)(OC[C@H]1O[C@@H](n2cnc(-c3cnc(N)nc3)c2)C(C)(F)[C@H]1O)Oc1ccccc1` (stereo partly shown) [CDW3-014], the inhibition at 50 µM in the series on Dengue Virus 2 [1] (DENV2, read-out: % inhib) amounted to 13.6%; with Dengue Virus 4 (DENV4, read-out: % inhib), 27%. In addition, inhibition in the series with Ebola Virus [8] was half-maximal at 10.5 µM (IC50). This molecule gave a CC50 in “in vitro [2]” of 33.4 µM.

Regarding `CCC(CC)COC(=O)[C@H](C)N[P@](=O)(OCCOCn1cncc1-c1cnc(N)nc1OC)Oc1ccccc1` [JT-096], the IC50 in the series with Dengue Virus 2 [1] was greater than 28 µM; in the series with Dengue Virus 4 (DENV4), greater than 42 µM; in the series with SARS-CoV-2 (WA-1) it was 10.5 µM; in the series on SARS-CoV-2 (WA), 31.4 µM; in the series on Ebola Virus [8], 52 µM. Besides, the IC90 in the series on SARS-CoV-2 (WA-1) came to 46.3 µM; in the series on SARS-CoV-2 (WA), 106 µM. For the same molecule, the results for the CC50 (in series [6]; in the series “in vitro [2]”; in series [7]) were greater than 100 µM, 28 µM and 73.3 µM, respectively.

Values taken from patent US20250092080A1, “FLEX-NUCLEOSIDE ANALOGUES, NOVEL THERAPEUTICS AGAINST VIRUSES” (priority 2022, published 2025).
